Experimental data reported in US11945881B2, “Neoantigens expressed in ovarian cancer and their uses” (Janssen Biotech, Inc., priority 2020, dated 2024).

How the values were obtained:
CD8+ T cells = assay: exogenous autologous normal donor restimulation assay, TNFα/IFNγ double positive CD8+ T cells by flow cytometry; assay type: cell-based, human; conditions: for Fold change (CD8+) vs. DMSO: maximum CD8+ T-cell response (TNFα and IFNγ); for Fold change (CD8+) vs. DMSO / Frequency (TNFα + IFNγ + CD8 T cells): donor independent, peptide pool 10 μg/mL, healthy donors; for Frequency (TNFα + IFNγ + CD8 T cells): maximum CD8+ T-cell response; for Immunogenic (yes/no): positive if CD8+ and/or CD4+ double positive TNFα/IFNγ frequency >=3-fold over DMSO and at least 0.01%
Procedure: (§1) The immunogenicity of neoantigens was assessed using the exogenous autologous normal donor restimulation assay. […] The lyophilized peptides were solubilized in 100% DMSO.
(§2) CD1c+ Dendritic Cells (CD1c+DC) isolated from human healthy PBMCs were thawed using media (IMDM (Gibco) supplemented with glutamine, HEPES, 5% human serum (Sigma), and 1× Pen-Strep). DC cells were resuspended in media supplemented with IL-4 (Peprotech, 20 ng/mL) and GM-CSF (Gibco, 20 ng/mL), plated in 6 well microplates, and rested overnight at 37° C. and 5% CO2 incubator. The following day, DC cells were counted and plated in a 96 well round bottom microplate at a concentration of 30,000 viable cells per well. Lyophilized neoantigen peptide pools (15-mer peptides with 8-mer overlapping peptide sequences) were solubilized in 100% DMSO with a stock concentration of 20 mg/mL Neoantigen peptides pools were added to DCs for a final concentration of 10 μg/mL and rested for 2 hours at 37° C. and 5% CO2 incubator. CEF Peptide Pool “Plus” (Cellular Technologies, Ltd.) was utilized as a positive control (each viral peptide at a final concentration of 4 ug/ml) and DMSO at the same final concentration (0.05%) as the experimental peptides was utilized as a negative control. After 2 hours, DC cells were irradiated with 50 gray of ionizing radiation. Autologous CD3+ Pan-T cells isolated from human normal PBMCs were thawed using media. Following irradiation, autologous Pan-T cells were added to the irradiated DCs at 300,000 viable cells per well. Human IL-15 (Peprotech) was added to all wells at final concentration of 10 ng/ml. Plates were incubated at 37° C. and 5% CO2 incubator for a total of 12 days. Media was refreshed every 2-3 days with IL-15 (R&D System, 10 ng/mL final concentration) and IL-2 (R&D systems, 10 IU/mL final concentration).
(§3) On Day 11, cells were re-stimulated with identical experimental peptide pools or controls, at same concentration as peptide stimulation on Day 1. Protein Inhibitor Cocktail (eBioscience) was added to every well and plate was incubated overnight for 14-16 hours at 37° C. and 5% CO2 incubator. On Day 12, cells were stained for surface and intracellular flow cytometry analysis. The cells were washed with PBS and stained with Live/Dead Fixable Aqua Dead Cell stain (Thermo-Fisher). Following the live/dead stain, cells were blocked using Biotin-Fre Fc Receptor Blocker (Accurate Chemical & Scientific Corp). Extracellular cellular flow panel ([…] per well in 50 μL) consisted of CD3 PerCP-Cy5.5 (Biolegend), CD4 BV421 (Biolegend), and CD8 APC-Cy7 (Biolegend). After extracellular staining, cells were fixed and permeabilized using Foxp3/Transcription Factor Staining Buffer Set (eBioscience) and stained for intracellular proteins (1:50 dilution) using TNFα FITC (R&D Systems) and IFNγ BV785 (Biolegend). Cells were washed and resuspended in stain buffer, analyzed, and recorded in a BD Celesta flow cytometer.
(§4) Flow cytometry analysis was conducted on FlowJo v10.6 software. Cells were gated on live, singlet, CD3+, CD4+ and CD8+ T cells. The CD8+ and CD4+ T cells were analyzed for TNFα and IFNγ expression.
(§5) The immunogenicity of neoantigens was first investigated in 9-16 healthy donors.

CD4+ T cells = assay: exogenous autologous normal donor restimulation assay, TNFα/IFNγ double positive CD4+ T cells by flow cytometry; assay type: cell-based, human; conditions: donor independent, peptide pool 10 μg/mL, healthy donors; for Fold change (CD4+) vs. DMSO: maximum CD4+ T-cell response (TNFα and IFNγ); for Frequency (TNFα + IFNγ + CD4 T cells): maximum CD4+ T-cell response
Procedure: as §1, §2, §3, §4, §5

Sequence | Fold change (CD8+) vs. DMSO (CD8+ T cells) [fold] | Frequency (TNFα + IFNγ + CD8 T cells) (CD8+ T cells) [%] | Immunogenic (yes/no) (CD8+ T cells) | Fold change (CD4+) vs. DMSO (CD4+ T cells) [fold] | Frequency (TNFα + IFNγ + CD4 T cells) (CD4+ T cells) [%]
RSSGLTTSSEYSTHVHMPLILHQAEQELLLLINP [AS141, neoantigen, alternative splicing of MUC16] | 3.82 | 0.041 | Yes | 6.94 | 0.045
PSLSTRLTSKDPQPLQSHYWGLIGNDPFLRSKKRVN [AS4, neoantigen, alternative splicing of MUC16] | 7.55 | 0.068 | Yes | 11.53 | 0.093
AMAKKQRPDTAFWVQH [AS12, neoantigen, alternative splicing of IQGAP3] | 6.05 | 0.13 | Yes | 8.4 | 0.017
GDPAKVVEIPRLL [AS31, neoantigen, alternative splicing of MECR] | 4.54 | 0.045 | Yes | 6.91 | 0.016
LASGVPPPGLPWGPGPHLG [AS60, neoantigen, alternative splicing of HMCN2] | 265.02 | 1.9 | Yes | 4.3 | 0.019
KNFITCFKGGHASAAEPRKGR [FUS22, neoantigen, gene fusion C8orf82->LRRC24] | 8.05 | 0.087 | Yes | 8.67 | 0.31
QATPSSILCFRLACLWLLRKGLLDLTW [AS15, neoantigen, alternative splicing of IMPG2] | 48.05 | 0.08 | Yes | 11.36 | 0.023
YGNDQWLQMRKWRHRE [FUS13, neoantigen, gene fusion MFGE8->HAPLN3] | 5.12 | 0.11 | yes | 3.35 | 0.12
NYGNLFSLAGSLHFTA [AS89, neoantigen, alternative splicing of ZNF727] | 142.04 | 0.26 | Yes | 7.02 | 0.061
SHALNWNKIGRMFRASRV [AS65, neoantigen, alternative splicing of LCN10] | 82.3 | 2.2 | Yes | 73.69 | 0.64
MPGHGAICSGSSRQPD [AS82, neoantigen, alternative splicing of IMPG2] | 13.55 | 0.82 | Yes | 5.88 | 0.026
LEEEFISEWRRCLLCSYLQW [AS63, neoantigen, alternative splicing of IMPG2] | 185.74 | 0.5 | Yes | 13.54 | 0.15
RLDDSGIGNFITSLLNFISKFFCSFMGA [AS99, neoantigen, alternative splicing of FAM221A] | 160.85 | 1.43 | Yes | 4 | 0.077
GFILIGWGAGNLVLETSSGFIKHRS [AS69, neoantigen, alternative splicing of PTH2R] | 260.42 | 1 | Yes | 9.21 | 0.011
EEDREKYRWMAPFVPGQVWTWEYFL [AS28, neoantigen, alternative splicing of HYDIN] | 8.82 | 0.15 | Yes | 12.43 | 0.17
KLCSRQRPDCQPVDSRHGPILSIQHLISALHTGDG [AS123, neoantigen, alternative splicing of VWA2] | 115.04 | 1.09 | yes | 3.7 | 0.024
IGKGSFGKFLEDATHMV [AS36, neoantigen, alternative splicing of STK32C] | 7.44 | 0.45 | Yes | 3.36 | 0.04
VQKLKNARSLNLEDQI [AS83, neoantigen, alternative splicing of NUF2] | 10.83 | 0.14 | Yes | 71.14 | 0.061
IPPHLQWESTRQTEWISVREFHLESSLYP [AS61, neoantigen, alternative splicing of IGF2BP3] | 4.86 | 0.13 | Yes | 4.26 | 0.038
FLIVAEIVTLLIAFI [FUS20, neoantigen, gene fusion CMTM8->CMTM7] | 28.23 | 0.54 | Yes | 2.36 | 0.019
QHLQQEACVTSAGKQS [AS19, neoantigen, alternative splicing of PLEKHG4B] | 182.29 | 0.7 | Yes | 5.69 | 0.06
LRLRPNRRRASSAQTAPTSSLSLWSGASRRRRPAGGHMWCTAGRPSSRSGQNLTGTCTMKPLAWETFPTCWAWWGTSWATQSGSGGMPSQAATASRCCWWWTTRWFASMARSMCRTMSSPS [AS1] | 29.8 | 0.57 | Yes | 16.77 | 0.15
MHRKLQARSPSLCTGHPPQAA [AS75, neoantigen, alternative splicing of TSPAN10] | 2.64 | 0.16 | Yes | 3.46 | 0.014
GTMEVKSKKKQTTVPLVQTR [AS67, neoantigen, alternative splicing of PARD6B] | 6.36 | 0.17 | Yes | 3.15 | 0.028
